We go through 1 compound from US9107851B2, “Solventless mixing process for coating pharmaceutical ingredients” (New Jersey Institute of Technology, priority 2012, dated 2015).

The nature of the data set: USP dissolution test (Apparatus II paddles, pH 7.2 phosphate buffer with SDS, 37° C.). The format is physicochemical. The settings on record: for Time to dissolve: uncoated; for Initial dissolution rate (—): grinding pressure 0. As for the experimental part: The coated API core particles have the taste of the API masked to allow easy swallowing or even chewing by patients. The API is still released from the coated API core particles in relatively short time. A USP Dissolution Test may be used to assess the release of API from the coated API core particles. The dissolution test employs a media of 7.2 pH phosphate buffer solution with 0.4 g/L sodium dodecyl sulfate (SDS, used to ensure wetting of the powders) at 37° C. and is carried out in USP Apparatus II (paddles) rotating at 50 RPM. The percentage of active pharmaceutical ingredient that is dissolved is measured over time. The coated API core particles can release the API in 30 minutes or less as measured in the USP Dissolution test, or in 20 minutes or less as measured in the USP dissolution test.

As for `O=C1O[C@H]([C@@H](O)CO)C(O)=C1O` [ascorbic acid], the Time to dissolve was 10 s (Example 23: 45 μm-63 μm), “less than 20 seconds” (Example 23: 90 μm-125 μm), “less than 60 seconds” (Example 23: 150 μm-250 μm) and “less than 60 seconds” (Example 23: 425 μm-500 μm). The “Initial dissolution rate (—)” value (ascorbic acid initial d50 93 μm) was 9.16, the “Initial dissolution rate (—)” value (ascorbic acid initial d50 192 μm) is 7.764 and the “Initial dissolution rate (—)” value (ascorbic acid initial d50 341 μm) is given as 4.053.
